How the values were obtained:
[1] = tested on: MCF-7 breast cancer cell line; assay: MTT in vitro antiproliferative assay; type: cell-based; details: Homo sapiens, MCF7, 24 h, read-out: IC50 on the human MCF-7 cell line
[2] = biological target: VEGFR2 kinase (Homo sapiens, UniProt P35968); assay: biochemical
[3] = tested on: human red blood cell (HRBC) membrane; assay: HRBC membrane stabilization assay; type: cell-based; details: Erythrocyte, read-out: percentage of inhibition of hemolysis (HRBC membrane stabilization)
[4] = tested on: MCF-7 cells; assay: Wound healing; type: cell-based, human; details: MCF-7, IC50 concentration
[5] = tested on: MCF-7 cells; assay: Cell cycle analysis by propidium iodide flow cytometry; type: cell-based, human; details: MCF-7, 1.29 μM, 24 h; untreated control 2.4

Sequence of VEGFR2 kinase (P35968 20-1356): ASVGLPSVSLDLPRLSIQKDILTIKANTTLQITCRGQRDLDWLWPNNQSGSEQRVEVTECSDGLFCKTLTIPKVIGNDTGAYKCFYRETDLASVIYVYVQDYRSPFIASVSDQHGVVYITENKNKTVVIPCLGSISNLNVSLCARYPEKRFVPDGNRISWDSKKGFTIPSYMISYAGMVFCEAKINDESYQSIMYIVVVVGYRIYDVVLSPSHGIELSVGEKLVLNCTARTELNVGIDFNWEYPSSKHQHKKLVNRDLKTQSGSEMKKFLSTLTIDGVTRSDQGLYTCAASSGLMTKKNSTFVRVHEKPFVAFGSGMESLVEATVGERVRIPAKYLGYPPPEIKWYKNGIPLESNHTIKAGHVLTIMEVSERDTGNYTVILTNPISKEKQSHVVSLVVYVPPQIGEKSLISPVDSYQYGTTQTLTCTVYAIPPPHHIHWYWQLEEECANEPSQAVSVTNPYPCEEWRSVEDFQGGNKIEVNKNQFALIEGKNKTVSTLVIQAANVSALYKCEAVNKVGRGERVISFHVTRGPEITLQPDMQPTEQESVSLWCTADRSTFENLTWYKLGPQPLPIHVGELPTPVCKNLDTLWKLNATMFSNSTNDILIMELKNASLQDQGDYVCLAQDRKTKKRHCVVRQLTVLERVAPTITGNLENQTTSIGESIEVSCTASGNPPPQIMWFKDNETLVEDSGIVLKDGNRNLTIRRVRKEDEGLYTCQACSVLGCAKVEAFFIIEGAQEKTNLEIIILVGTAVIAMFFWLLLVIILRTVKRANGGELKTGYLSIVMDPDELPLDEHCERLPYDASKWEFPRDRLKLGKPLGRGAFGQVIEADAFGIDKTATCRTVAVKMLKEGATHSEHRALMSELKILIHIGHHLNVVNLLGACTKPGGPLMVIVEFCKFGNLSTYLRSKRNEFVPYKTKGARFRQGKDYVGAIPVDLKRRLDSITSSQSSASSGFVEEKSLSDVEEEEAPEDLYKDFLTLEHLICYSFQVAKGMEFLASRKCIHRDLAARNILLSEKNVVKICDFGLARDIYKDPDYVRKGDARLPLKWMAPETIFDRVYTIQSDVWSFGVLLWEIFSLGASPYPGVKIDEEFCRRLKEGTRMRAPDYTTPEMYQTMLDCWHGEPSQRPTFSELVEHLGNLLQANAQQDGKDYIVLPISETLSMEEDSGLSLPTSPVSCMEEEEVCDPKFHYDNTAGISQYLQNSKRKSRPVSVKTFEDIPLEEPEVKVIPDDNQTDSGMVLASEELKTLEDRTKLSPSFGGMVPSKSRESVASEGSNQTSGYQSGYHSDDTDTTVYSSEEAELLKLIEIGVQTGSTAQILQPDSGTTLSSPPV

SMILES	IC50 [1] [µM]	IC50 [2] [µM]	other results
O=c1[nH]cc(F)c(=O)[nH]1 [5-fluorouracil, reference compound]	7.79	–	–
O=C(CC1Sc2ccccc2NC1=O)c1ccc(Cl)c(Cl)c1 (stereo not shown) [Compound 2e, 2-(2-(3,4-Dichlorophenyl)-2-oxoethyl)-2H-benzo[b][1,4]thiazin-3(4H)-one]	4.98	0.135	–
O=C(CC1Sc2ccccc2NC1=O)c1ccc(Cl)cc1 (stereo not shown) [Compound 2c, 2-(2-(4-Chlorophenyl)-2-oxoethyl)-2H-benzo[b] [1, 4]thiazin-3(4H)-one]	1.29	–	inhibition at 125 µg/mL [3]: 31.6%; inhibition at 250 µg/mL [3]: 49.8%; inhibition at 500 µg/mL [3]: 75.4%; wound healing percentage (percentage wound healing area) at 0 h ([4]; 0 h, control 66.42 ± 1.20): 66.63 ± 0.66%; reduction in the area of the wound (percentage wound healing area) after 24 h ([4]; 24 h, control 43.23 ± 1.71): 61.98 ± 1.44%; population of cells at G2/M phase [5]: 1%
O=C(CC1Sc2ccccc2NC1=O)c1ccc(F)c(F)c1 (stereo not shown) [Compound 2b, 2-(2-(3,4-Difluorophenyl)-2-oxoethyl)-2H-benzo[b][1,4]thiazin-3(4H)-one]	1.37	0.0593	–
O=C(CC1Sc2ccccc2NC1=O)c1ccc(Br)cc1 (stereo not shown) [Compound 2d, 2-(2-(4-Bromophenyl)-2-oxoethyl)-2H-benzo[b][1,4]thiazin-3(4H)-one]	2.3	–	–
O=C(CC1Sc2ccccc2NC1=O)c1ccc(F)cc1 (stereo not shown) [Compound 2a, 2-(2-(4-Fluorophenyl)-2-oxoethyl)-2H-benzo[b][1,4]thiazin-3(4H)-one]	2.26	0.0741	–
CCOC(=O)CN1C(=O)C(CC(=O)c2ccc(F)c(F)c2)Sc2ccccc21 (stereo not shown) [Compound 3b, Ethyl 2-(2-(2-(3,4-Difluorophenyl)-2-oxoethyl)-3-oxo-2H-benzo [b][1,4]thiazin-4 (3H)-yl)acetate]	4.5	0.236	–
CCOC(=O)CN1C(=O)C(CC(=O)c2ccc(F)cc2)Sc2ccccc21 (stereo not shown) [Compound 3a, Ethyl 2-(2-(2-(4-Fluorophenyl)-2-oxoethyl)-3-oxo-2H-benzo[b][1,4]thiazin-4(3H)-yl)acetate]	5.19	0.632	–
Cc1ccc(C(=O)CC2Sc3ccccc3NC2=O)cc1Cl (stereo not shown) [Compound 2f, 2-(2-(3-Chloro-4-methylphenyl)-2-oxoethyl)-2H-benzo[b][1,4]thiazin-3(4H)-one]	3.7	0.0972	–
CCOC(=O)CN1C(=O)C(CC(=O)c2ccc(Br)cc2)Sc2ccccc21 (stereo not shown) [Compound 3d, Ethyl 2-(2-(2-(4-Bromophenyl)-2-oxoethyl)-3-oxo-2H-benzo[b][1,4]thiazin-4(3H)-yl)acetate]	3.31	–	–
CCOC(=O)CN1C(=O)C(CC(=O)c2ccc(Cl)cc2)Sc2ccccc21 (stereo not shown) [Compound 3c, Ethyl 2-(2-(2-(4-Chlorophenyl)-2-oxoethyl)-3-oxo-2H-benzo[b][1,4]thiazin-4(3H)-yl)acetate]	4.39	–	inhibition at 125 µg/mL [3]: 27.4%; inhibition at 500 µg/mL [3]: 53.6%

From publication PMC9948161 (ACS Omega, 2023)
